Data from ChEMBL document CHEMBL5223062, “Tumor pyruvate kinase M2 modulators: a comprehensive account of activators and inhibitors as anticancer agents” (RSC Med Chem, 2021).
pIC50: −log10 of the molar value. Each block holds one molecule with its values, some of them ahead of it.

How the values were obtained:
[1] = molecular target: T1, Pyruvate kinase PKM (Homo sapiens, UniProt P14618); experiment: Activation of PKM2 (unknown origin)
Target sequence in this assay (P14618 whole entry): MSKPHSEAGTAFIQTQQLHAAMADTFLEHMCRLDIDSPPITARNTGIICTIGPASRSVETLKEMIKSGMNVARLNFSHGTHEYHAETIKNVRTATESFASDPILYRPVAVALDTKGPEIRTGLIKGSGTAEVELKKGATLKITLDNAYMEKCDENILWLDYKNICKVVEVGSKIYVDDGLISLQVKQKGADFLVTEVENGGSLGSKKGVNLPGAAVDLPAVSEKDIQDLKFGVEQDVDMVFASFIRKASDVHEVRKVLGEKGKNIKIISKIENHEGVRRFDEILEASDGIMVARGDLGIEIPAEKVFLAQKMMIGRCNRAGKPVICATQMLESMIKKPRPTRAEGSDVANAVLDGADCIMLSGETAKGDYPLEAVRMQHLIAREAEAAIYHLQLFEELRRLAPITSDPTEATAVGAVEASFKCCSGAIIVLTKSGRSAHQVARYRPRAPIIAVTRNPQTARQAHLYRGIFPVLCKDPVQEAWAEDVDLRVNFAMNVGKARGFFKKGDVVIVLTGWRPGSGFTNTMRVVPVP

[2] = molecular target: T1, Pyruvate kinase PKM; experiment: Inhibition of PKM2 (unknown origin)
Target sequence in this assay (P14618 whole entry): as above

[3] = molecular target: T1, Pyruvate kinase PKM; experiment: Binding affinity to PKM2 (unknown origin) assessed as Gibbs free energy
Target sequence in this assay (P14618 2-531 limits assumed): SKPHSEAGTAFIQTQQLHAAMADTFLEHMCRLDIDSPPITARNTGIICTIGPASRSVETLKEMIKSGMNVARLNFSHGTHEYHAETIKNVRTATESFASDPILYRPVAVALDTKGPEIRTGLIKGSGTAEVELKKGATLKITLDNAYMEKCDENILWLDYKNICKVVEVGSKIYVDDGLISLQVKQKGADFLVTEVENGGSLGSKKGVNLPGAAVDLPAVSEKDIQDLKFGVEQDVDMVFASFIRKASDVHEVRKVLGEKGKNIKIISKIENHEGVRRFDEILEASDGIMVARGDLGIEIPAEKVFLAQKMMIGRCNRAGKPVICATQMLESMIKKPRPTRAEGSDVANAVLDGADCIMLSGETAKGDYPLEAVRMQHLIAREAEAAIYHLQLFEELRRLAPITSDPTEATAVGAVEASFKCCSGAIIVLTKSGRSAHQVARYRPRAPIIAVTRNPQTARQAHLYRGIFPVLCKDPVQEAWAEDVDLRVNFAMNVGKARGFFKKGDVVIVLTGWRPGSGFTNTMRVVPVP

[4] = molecular target: T1, Pyruvate kinase PKM; experiment: Inhibition of PKM1 (unknown origin) at 10 uM relative to control
Target sequence in this assay (P14618 2-531 limits assumed): as above

[5] = molecular target: T1, Pyruvate kinase PKM; experiment: Inhibition of PKM2 (unknown origin) at 10 uM relative to control
Target sequence in this assay (P14618 2-531 limits assumed): as above

[6] = system: NCI-H1299; experiment: Inhibition of glycolysis in human NCI-H1299 cells; type: functional
[7] = molecular target: T1, Pyruvate kinase PKM; experiment: Activation of PKM2 in human NCI-H1299 cells; type: cell-based
Target sequence in this assay (P14618 whole entry): as the sequence (P14618 whole entry) above

[8] = system: DLD-1; experiment: Antiproliferative activity against human DLD-1 cells assessed as cell growth inhibition; type: functional, cell-based
[9] = system: HT-29; experiment: Antiproliferative activity against human HT-29 cells assessed as cell growth inhibition; type: functional, cell-based
[10] = system: HCT-116; experiment: Antiproliferative activity against human HCT-116 cells assessed as cell growth inhibition; type: functional, cell-based
[11] = system: HeLa; experiment: Antiproliferative activity against human HeLa cells assessed as cell growth inhibition; type: functional, cell-based
[12] = system: PC-3; experiment: Antiproliferative activity against human PC-3 cells assessed as cell growth inhibition; type: functional, cell-based
[13] = system: NCI-H1299; experiment: Antiproliferative activity against human NCI-H1299 cells assessed as cell growth inhibition; type: functional, cell-based

AC50 [1]: 0.006 µM
SMILES: C=C1C(=O)O[C@H]2C1CCC(C)=C1CC[C@@](C)(O)[C@@H]12 (stereo not given in full)

pIC50 [2]: 5.85
deltaG [3]: -7.98 kcal/mol
SMILES: CC(C)=CC[C@@H](O)C1=CC(=O)c2c(O)ccc(O)c2C1=O [SHIKONIN]

inhibition [4]: 31%
inhibition [5]: 86%
SMILES: CCCCCN1/C(=C\C=C\C2N(CCCC)c3cc(Cl)c(Cl)cc3N2CCCCC)N(CCCC)c2cc(Cl)c(Cl)cc21 (stereo not given)

AC50 [1]: 0.01 µM
SMILES: COc1ccccc1N1CCN(C(=O)c2ccc(NS(=O)(=O)c3cccc4cccnc34)cc2)CC1

inhibition [4]: 34%
inhibition [5]: 81%
SMILES: Cc1ccc(C)n1-c1ccc(O)c(C(=O)O)c1
inhibition (INH) [6]: 18.5%

AC50 [7]: 0.07 µM
SMILES: COc1cccc(Cn2ncc3c4sc([S+](C)[O-])cc4n(C)c3c2=O)c1 (stereo not given)

pIC50 [8]: 4.05
pIC50 [9]: 5.70
pIC50 [10]: 4.55
SMILES: O=c1cc(-c2ccc(O)cc2)oc2cc(O)cc(O)c12 [APIGENIN]

SMILES: CC(C)=CCC1=C(O)C(=O)c2ccccc2C1=O [LAPACHOL]
pIC50 [2]: 5.85
deltaG [3]: -9.34 kcal/mol

AC50 [1]: 0.015 µM
SMILES: C=C1C(=O)O[C@@H]2[C@H]3O[C@]3(C)CC/C=C(/C(=O)OCCOCCOC(=O)/C3=C/CC[C@@]4(C)O[C@@H]4[C@H]4OC(=O)C(=C)[C@@H]4CC3)CC[C@@H]12

AC50 [1]: 0.03 µM
SMILES: Nc1cccc(S(=O)(=O)N2CCCN(S(=O)(=O)c3ccc4c(c3)OCCO4)CC2)c1

AC50 [1]: 3.14 µM
pIC50 [11]: 6.34
pIC50 [12]: 6.34
pIC50 [10]: 6.34
SMILES: O=S(=O)(Nc1ccc(C2(O)CSC(=S)N2Cc2ccccc2)cc1)c1ccc2c(c1)OCCO2 (stereo not given)

AC50 [1]: 0.95 µM
SMILES: COc1ccc(-c2cc(=O)c3c(OC)c(OC)c(OC)c(OC)c3o2)cc1 [TANGERETIN]

pIC50 [13]: 5.53
pIC50 [11]: 5.53
pIC50 [10]: 5.53
SMILES: CC1=C(CSC(=S)N2CCCCC2)C(=O)c2ccccc2C1=O

AC50 [1]: 0.09 µM
SMILES: O=C1CCc2cc(S(=O)(=O)Nc3ccc(F)c(Cl)c3)c(F)cc2N1

AC50 [1]: 22.2 µM
SMILES: O=C(O)/C=C/c1ccc(O)cc1 [COUMARIC ACID]

AC50 [1]: 0.01 µM
SMILES: Cn1cc(C(=O)c2cccc(Cl)c2Cl)cc1C(=O)NCCNC(=O)c1cc(C(=O)c2cccc(Cl)c2Cl)cn1C

inhibition [4]: 36%
inhibition [5]: 84%
SMILES: O=C(O)CN1C(=O)/C(=C/c2ccc(OC(=O)c3ccccc3I)cc2)SC1=S

AC50 [7]: 0.06 µM
SMILES: Cc1cc2c(s1)c1cnn(Cc3ccccc3F)c(=O)c1n2C

AC50 [1]: 7 µM
SMILES: O=P(O)(O)OC[C@H]1O[C@](O)(COP(=O)(O)O)[C@@H](O)[C@@H]1O [FOSFRUCTOSE]

SMILES: O=c1c(O)c(-c2cc(O)c(O)c(O)c2)oc2cc(O)cc(O)c12 [MYRICETIN]
AC50 [1]: 0.51 µM

AC50 [1]: 0.01 µM
SMILES: O=C(c1cc(C(F)(F)F)n[nH]1)N(Cc1ccc(O)cc1F)CC1CCC1

AC50 [1]: 26.2 µM
SMILES: COc1cc(/C=C/C(=O)O)cc(OC)c1O [SINAPINATE]
